Test results taken from EP2594270A2, “The use of sGC stimulators, sGC activators, alone and combinations with PDE5 inhibitors for the treatment of systemic sclerosis (SSc)” (BIP Patents, priority 2011, dated 2013).
Where two headings read alike, the source gives them in different places.

Key:
[1] = system: established skin fibrosis in Tsk-mice; assay: Tight skin (Tsk-1) mouse model of systemic sclerosis (Example C): dermal thickness, hydroxyproline assay, αSMA immunohistochemistry; assay type: in vivo; conditions: for hypodermal thickness / Collagen content / Myofibroblast count: oral gavage, x-fold change with respect to vehicle-treated wild type mice; for hypodermal thickness: five weeks of treatment; for Collagen content: hydroxyproline assay; for Collagen content / Myofibroblast count: five weeks; for Myofibroblast count: αSMA positive cells
Method: (§1) The injected skin areas were fixed in 4% formalin and embedded in paraffin. Histological sections were stained with hematoxylin and eosin for the determination of dermal thickness. The dermal thickness was determined by measuring the largest distance between the epidermal-dermal junction and the dermal-subcutaneous fat junction. The measurements were performed by an examiner blinded to the treatment of the mice.
(§2) To analyze the collagen content in skin samples, hydroxyproline assay was performed. After digestion of punch biopsies (Ø 3mm) in 6M HCl for three hours at 120°C, chloramine T (0.06 M) was added and samples were mixed and incubated for 20 min at room temperature. 3.15 M perchloric acid and 20 % p-dimethylaminobenzaldehyde were added and samples were incubated for additional 20 min at 60 °C. The absorbance was determined at 557 nm.
(§3) The expression of α-smooth muscle actin (αSMA) was analyzed in paraffin embedded sections. After deparaffinization, samples were incubated with 3% bovine serum albumin followed by incubation with 3% H2O2. αSMA positive cells in mouse sections were detected by incubation with monoclonal anti-αSMA antibodies (clone 1A4, Sigma-Aldrich, Steinheim, Germany). Irrelevant isotype antibodies in the same concentration were used for control (Santa Cruz Biotechnology, Santa Cruz, CA, USA). Antibodies labeled with horseradish peroxidase (Dako, Hamburg, Germany) were used as secondary antibodies. The expression of the NICD and αSMA was visualized with DAB peroxidase substrate solution (Sigma-Aldrich). The number of myofibroblasts was counted from 4 different sections of lesional skin for each mouse by an examiner blinded to the treatment of the mice. Table 1: Effects of example 1A on development of Bleomycin-induced skin fibrosis.
In addition to the mouse model of bleomycin-induced dermal fibrosis, the tight-skin (Tsk-1) mouse model of systemic sclerosis was used to evaluate the anti-fibrotic potential of test drugs. Due to a dominant mutation in fibrillin-1, the phenotype of Tsk-1 is characterized by an increased hypodermal thickness. Genotyping of Tsk-1 mice was performed by PCR with the following primers: mutated fibrillin-1/ Tsk-1 forward primer: 5' - […] - 3', reverse primer: 5' - […] - 3'. Tsk-1 mice were treated daily with test drug or vehicle, respectively, by oral gavage. In addition, a group of corresponding wild type(pa/pa) mice was treated with vehicle. The treatment was started at an age of five weeks. After five weeks of treatment, mice were sacrificed by cervical dislocation and skin samples were obtained for analysis.
Histological analysis, hydroxyproline assay and immunhistochemistry for α-smooth muscel actin were performed as described in the Example 1A section. Table 4: Effects of example 1A on established skin fibrosis in Tsk-mice
Fibrosis parameters expressed as x-fold change with respect to vehicle-treated wild type mice

[2] = system: Bleomycin-induced skin fibrosis; assay: Bleomycin-induced skin fibrosis, preventive dose-regimen (Example A): dermal thickness, hydroxyproline assay, αSMA immunohistochemistry; assay type: in vivo, mice; conditions: for Collagen content: hydroxyproline assay; for Myofibroblast count: αSMA positive cells
Method: Local skin fibrosis was induced in 6-week-old, pathogen-free, female DBA/2 mice (Charles River, Sulzfeld, Germany) by repeated (every other day) subcutaneous injections of bleomycin (0,5 mg/ml in saline) in a defined area of the upper back. Control mice were injected in the same manner with saline only and served as reference. For all groups the injection volume was 100 µl. Concomitant to bleomycin treatment, the mice were treated orally with test drug or vehicle. Mice were treated a) with vehicle b) with 1 mg/kg example 1A, and c) with 3 mg/kg example 1A, twice a day via gavage for 21 days. After this 3 weeks treatment period, the animals were sacrificed and skin samples were obtained for analysis.
as §1, §2, §3
Fibrosis parameters expressed as x-fold change with respect to vehicle-treated control

[3] = system: established Bleomycin-induced skin fibrosis; assay: Established bleomycin-induced skin fibrosis, therapeutic dose-regimen (Example B): dermal thickness, hydroxyproline assay, αSMA immunohistochemistry; assay type: in vivo, mice
Method: as §1, §2, §3
Local skin fibrosis was induced in 6-week-old, pathogen-free, female DBA/2 mice (Charles River, Sulzfeld, Germany) by repeated (every other day) subcutaneous injections of bleomycin (0,5 mg/ml in saline) in a defined area of the upper back. Control mice were injected in the same manner with saline only. For all groups the injection volume was 100 µl. The study comprises 4 arms with • a) mice receiving saline injection for 6 weeks (serving as reference) • b) mice receiving Bleomycin injection for 6 weeks • c) mice receiving Bleomycin injection for 6 weeks and additional treatment with example 1A (3 mg/kg) twice a day via gavage for the last 3 weeks • d) mice receiving the first 3 weeks bleomycin injections and the second 3 weeks saline injection.
After 6 weeks the animals were sacrificed and skin samples were obtained for analysis.
Histological analysis, hydroxyproline assay and immunhistochemistry for α-smooth muscel actin were performed as described in the Example 1A section. Table 3: Effects of example 1A (3mg/kg p.o.) on established Bleomycin-induced skin fibrosis Fibrosis parameters expressed as x-fold change with respect to vehicle-treated control (group a)

[4] = Haemodynamic effects in conscious mice with telemetric implants (Example D); assay type: in vivo; conditions: dosages with antifibrotic properties
Method: The haemodynamic effects of i.e. example (1A) were analyzed in conscious mice. Telemetric implants (DSI®) were used. Signals were received with RMC1-DSI® receiver plates, compiled and analyzied with PONEMAH® physiology platform software.
The mice received either placebo (tylose), 0.3 mg/kg example 1A, 1mg/kg example 1A, 3mg/kg example 1A (Figure 1). The blood pressure and heart rate was monitored before and after application of placebo or the compounds.

human dermal fibroblasts = assay: TGFbeta-induced collagen gene expression and hydroxyproline deposition in human dermal fibroblasts in vitro (Example E); assay type: cell-based
Method: The effects of example 1A and vardenafil as standalone and in combination were analyzed in vitro in human dermal fibroblasts in vitro.

[5] = TSK mice, established fibrosis before start of treatment
[6] = bleomycin-induced SSc in mice, preventive dose-regimen
[7] = Bleomycin + 1 mg/kg example 1A, twice a day via gavage for 21 days, x-fold change with respect to vehicle-treated control
[8] = Bleomycin + 3mg/kg example 1A, twice a day via gavage for 21 days, x-fold change with respect to vehicle-treated control
[9] = Bleomycin 6 weeks + 3 weeks example 1A (3mg/kg p.o., twice a day, last 3 weeks), x-fold change with respect to vehicle-treated control (group a)
[10] = bleomycin-induced SSc in mice, therapeutic dose-regimen after established fibrosis

## Nc1nc(-c2nn(Cc3ccccc3F)c3ncccc23)ncc1C1CC1 [Example 1A, 3-(4-Amino-5-cyclopropylpyrimidin-2-yl)-1-(2-fluorobenzyl)-1H-pyrazolo[3,4-b]pyridine]
[1]; [5]
  dermal thickness: significantly reduced
  hydroxyproline content of the skin: significantly reduced
  number of dermal myofibroblasts: significantly reduced
[1]; Tsk-1 + 1 mg/kg example 1A
  hypodermal thickness: 3.46 x-fold change
  Collagen content: 1.61 x-fold change
  Myofibroblast count: 2.12 x-fold change
[1]; Tsk-1 + 3mg/kg example 1A
  hypodermal thickness: 2.88 x-fold change
  Collagen content: 1.67 x-fold change
  Myofibroblast count: 1.70 x-fold change
[2]; Bleomycin + 1 mg/kg example 1A, twice a day via gavage for 21 days, DBA/2 mice, x-fold change with respect to vehicle-treated control
  dermal thickness: 1.37 x-fold change
[2]; Bleomycin + 3mg/kg example 1A, twice a day via gavage for 21 days, DBA/2 mice, x-fold change with respect to vehicle-treated control
  dermal thickness: 1.19 x-fold change
[2]; [6]
  dermal thickness: significantly reduced
  hydroxyproline content of the skin: significantly reduced
  number of dermal myofibroblasts: significantly reduced
[2]; [7]
  Collagen content: 1.19 x-fold change
  Myofibroblast count: 3.23 x-fold change
[2]; [8]
  Collagen content: 1.11 x-fold change
  Myofibroblast count: 1.90 x-fold change
[3]; [9]
  Myofibroblast count: 1.68 x-fold change
  dermal thickness: 1.26 x-fold change
[3]; [10]
  dermal thickness: significantly reduced
  hydroxyproline content of the skin: significantly reduced
  number of dermal myofibroblasts: significantly reduced
[4]
  heamodynamic profile (blood pressure and heart rate): did not or only moderately, change
Human dermal fibroblasts
  TGF-induced collagen gene expression: significantly blocked
  TGFbeta-induced Hydroxyproline (HP) deposition: significantly blocked
Human dermal fibroblasts; listed as example 1A
  TGF-induced collagen gene expression: blocked
